The source of these data is patent US4393228A, “Epoxysuccinic acid derivatives” (Taisho Pharmaceutical Co., Ltd., priority 1977, dated 1983).

SMILES strings stand for the structures. Counter-ions that a name gives are not always drawn.

The target in the assay is T1, papain (Carica papaya, UniProt P00784).
T1 construct: purchased Sigma Chem. Co
T1 sequence (P00784 134-345): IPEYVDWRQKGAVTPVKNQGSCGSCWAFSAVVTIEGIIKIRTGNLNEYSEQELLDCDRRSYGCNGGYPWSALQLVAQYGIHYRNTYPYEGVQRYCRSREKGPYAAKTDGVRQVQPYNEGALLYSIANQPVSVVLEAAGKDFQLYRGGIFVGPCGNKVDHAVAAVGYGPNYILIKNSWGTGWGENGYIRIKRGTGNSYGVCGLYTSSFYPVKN
As to the kind of experiment: Papain inhibitory activity (milk casein digestion). The class given is biochemical. The following applies: papain 80 μg/ml 0.5 ml, cysteine, pH 6.8, 1% milk casein, 40° C., 10 minutes. The method, boiled down:
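Papain (80 μg/ml stock) preincubated 15 min at 40 °C with inhibitor, cysteine/EDTA activator and phosphate buffer pH 6.8. Then 1% milk casein digested 10 min at 40 °C, stopped with trichloroacetic acid and filtered; filtrate absorbance at 280 nm gives percent inhibition versus no-inhibitor control.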
Regarding `CCOC(=O)C1OC1C(=O)N[C@@H](CCCNC(C)=O)C(=O)OCc1ccccc1` (stereo partly drawn) [EP-172, N^α -(3-ethoxycarbonyloxirane-2-carbonyl)-N^δ -acetyl-L-ornithine benzyl ester], the “ID50 (amount of inhibitor for 50% inhibition)” value was 6.20 γ.

As for `CCOC(=O)C1OC1C(=O)N[C@@H](CCCNC(=O)c1ccccc1)C(=O)OCc1ccccc1` (stereo partly drawn) [EP-173, N^α -(3-ethoxycarbonyloxirane-2-carbonyl)-N^δ -benzoyl-L-ornithine benzyl ester], the “ID50 (amount of inhibitor for 50% inhibition)” value is 5.80 γ.

As for `O=C(NCCCC[C@H](NC(=O)C1OC1C(=O)O)C(=O)O)OCc1ccccc1` (stereo partly drawn) [EP-176, N-(3-carboxyoxirane-2-carbonyl)-N-carbobenzoxy-L-lysine dipotassium salt], the “ID50 (amount of inhibitor for 50% inhibition)” value was 1.06 γ.

On to `O=C(O)C1OC1C(=O)N[C@@H](Cc1c[nH]c2ccccc12)C(=O)O` (stereo partly drawn) [EP-177, N-(3-carboxyoxirane-2-carbonyl)-L-tryptophan], for which the “ID50 (amount of inhibitor for 50% inhibition)” value was 1.50 γ.

Take `N=C(NCCC[C@H](NC(=O)C1OC1C(=O)OCc1ccccc1)C(=O)OCc1ccccc1)N[N+](=O)[O-]` (stereo partly drawn) [EP-178, N-(3-benzyloxycarbonyloxirane-2-carbonyl)-N^G -nitro-L-arginine benzyl ester]: the “ID50 (amount of inhibitor for 50% inhibition)” value was 4.63 γ.

On to `CC(C)OC(=O)C1OC1C(=O)N[C@@H](CCCCNC(=O)OCc1ccccc1)C(=O)OCc1ccccc1` (stereo partly drawn) [EP-180, N^α -(3-iso-propyloxycarbonyloxirane-2-carbonyl)-N^ε -carbobenzoxy-L-lysine benzyl ester], for which the “ID50 (amount of inhibitor for 50% inhibition)” value is recorded as 9.76 γ.

Regarding `Cc1ccc(COC(=O)C2OC2C(=O)N[C@@H](CCCCNC(=O)OCc2ccccc2)C(=O)OCc2ccccc2)cc1` (stereo partly drawn) [EP-181, N^α -(3-p-methylbenzyloxycarbonyloxirane-2-carbonyl)-N^ε -carbobenzoxy-L-lysine benzyl ester], the “ID50 (amount of inhibitor for 50% inhibition)” value is given as 6.59 γ.

Turning to `O=C(NCCC[C@H](NC(=O)C1OC1C(=O)OCc1ccccc1)C(=O)OCc1ccccc1)OCc1ccccc1` (stereo partly drawn) [EP-182, N^α -(3-benzyloxycarbonyloxirane-2-carbonyl)-N^δ -carbobenzoxy-L-ornithine benzyl ester], the “ID50 (amount of inhibitor for 50% inhibition)” value is recorded as 5.95 γ.

For the molecule `CCCCOC(=O)C1OC1C(=O)N[C@@H](CCCNC(=O)OCc1ccccc1)C(=O)OCc1ccccc1` (stereo partly drawn) [EP-183, N^α -(3-n-buthoxycarbonyloxirane-2-carbonyl)-N^δ -carbobenzoxy-L-ornithine benzyl ester], the “ID50 (amount of inhibitor for 50% inhibition)” value is listed as 4.46 γ.

`COC(=O)[C@H](CCCNC(=N)N[N+](=O)[O-])NC(=O)C1OC1C(=O)OCc1ccccc1` (stereo partly drawn) [EP-184, N^α -(3-benzyloxycarbonyloxirane-2-carbonyl)-N^G -nitro-L-arginine methyl ester]: the “ID50 (amount of inhibitor for 50% inhibition)” value is 2.91 γ.

For `CCOC(=O)C1OC1C(=O)N[C@@H](Cc1c[nH]cn1)C(=O)OC` (stereo partly drawn) [EP-185, N^α -(3-ethoxycarbonyloxirane-2-carbonyl)-L-histidine methyl ester], the “ID50 (amount of inhibitor for 50% inhibition)” value is on record as 14.05 γ.

Turning to `CCOC(=O)C1OC1C(=O)N[C@@H](CO)C(=O)OCC` (stereo partly drawn) [EP-186, N^α -(3-ethoxycarbonyloxirane-2-carbonyl)-L-serine ethyl ester], the “ID50 (amount of inhibitor for 50% inhibition)” value is given as 23.15 γ.

With `O=C(NCCCC[C@H](NC(=O)C1OC1C(=O)OCCc1ccccc1)C(=O)OCc1ccccc1)OCc1ccccc1` (stereo partly drawn) [EP-187, N^α -(3-phenethyloxycarbonyloxirane-2-carbonyl)-N^ε -carbobenzoxy-L-lysine benzyl ester], the “ID50 (amount of inhibitor for 50% inhibition)” value was 1.40 γ.

As to `O=C(NCCCC[C@H](NC(=O)C1OC1C(=O)OCCCc1ccccc1)C(=O)OCc1ccccc1)OCc1ccccc1` (stereo partly drawn) [EP-188, N^α -[3-(3'-phenylpropyloxy)-carbonyloxirane-2-carbonyl]-N^ε -carbobenzoxy-L-lysine benzyl ester], the “ID50 (amount of inhibitor for 50% inhibition)” value is reported as 1.86 γ.
